The subject of series [1] is RD cells. Put plainly: Cytotoxicity of peptides on RD cells (Cell Titer-Glo). The class given is cell-based, human. The note with it: cell viability plotted against peptide concentration, Cell Titer-Glo (S1A-S1D Fig). The method, then: To test whether Cathelicidin peptide (LL-37) and its analogues could inhibit enterovirus infection, we conducted viral infection inhibition test on RD cells, which are one of the most commonly used cells for enterovirus propagation. We first assessed the cytotoxicity of LL-37, LL-18, FF-18, and a short form of LL-37 (DL-37) (Fig 1A), and all the peptides tested have a CC50 over 50 μM (S1A–S1D Fig). We then chose lower concentrations to test their antiviral activity. […] In addition, EV71 infection could cause cytopathic effect (CPE) on RD cells, and peptide could rescue EV71-induced cell death as assayed by crystal violet staining (Fig 1E) or cellular ATP content measurement (Fig 1F).
(§1) Cell viability assays were carried out using the Cell Titer-Glo Luminescent Cell Viability Assay Kit (Promega, Madison, WI) following the manufacturer’s instructions. Luminescence signals were measured using a BioTek Neo2 microplate reader.
(A-D) Cell viability of RD cells treated with the indicated amount of DL-37 (A), LL-37 (B), LL-18 (C), or FF-18 (D) was plotted against peptide concentration, and the cytotoxicity was determined. (E) EV71 virus pre-incubated with indicated amounts of DL-37, and the cell viability was determined 24 h.p.i. ***, P<0.001. (F-G) CVB5 (F) or Echo7 (G) virus pre-incubated with 0.3, 0.9, or 1.5 μM of peptides were used to infect RD cells. Cell viability was determined 24 h.p.i. ***, P<0.001. (H-I) CVB5 (H) or Echo7 (I) virus pre-incubated with 3, 6, or 12 μM of peptides were used to infect RD cells. Cell viability was determined 24 h.p.i. ***, P<0.001. (TIF) Click here for additional data file.
In general terms: In ATP-based viability assays light output follows the ATP content of the culture.

For series [2], the system named is EV71 virus. Put plainly: EV71 infection inhibition on RD cells (VP1 immunoblot, viral titer, cell viability/CPE). The class given is cell-based, enterovirus 71 (EV71). The note with it: RD cells; for inhibition of EV71 infection at 0.3, 0.9, or 1.5 μM / inhibition of EV71 infection at higher concentration: cell viability or viral titer 24 h.p.i; for inhibition of EV71 infection at 0.3, 0.9, or 1.5 μM: 0.3, 0.9, or 1.5 μM peptide; for inhibition of EV71 infection at higher concentration: much higher concentration than 1.5 μM. The method, then:
Synthetic peptides were purchased from Bioyears Co. Ltd. (Wuhan, China) with purity of more than 95% and dissolved in PBS. To test their inhibitory effects, the EV71 virus (MOI = 1) was incubated with the indicated amount of peptide at room temperature for 1 hr before the mixture was added to RD cells and maintained throughout the experiment. Cell viability, viral titer, or viral protein expression was determined 24 h.p.i. For the time-of-addition experiment, viruses were either pre-incubated with peptides (for the -2 and -1 time points), the mixture was added to the cells simultaneously (for 0 time point), or peptides were added after virus infection (for 1, 2, 4 and 7 h time points) and the virus/peptide was maintained in the culture before cell viability, viral titer, or viral protein expression was determined 24 h.p.i. The TCID50 of the virus was calculated according to the Reed-Muench method.
Cells were treated as described and harvested with LDS sample buffer (Thermo Fisher Scientific). After denaturation, samples were separated on 10% SDS-PAGE gel and then transferred to a polyvinylidene fluoride (PVDF) membrane. The proteins were blocked using 5% skimmed milk and probed with the corresponding antibodies. The following antibodies were used in this study: EV71 VP1 polyclonal antibody (GeneTex, Taiwan, China), β-Actin antibody (Zen BioScience, Chengdu, China), pan-Enterovirus Monoclonal antibody (Thermo Fisher Scientific). The chemiluminescence signals were visualized using ECL Advance reagents (Mishubio, China), and the images were acquired using the FUSION Solo S Imaging System (VILBER, France).
as §1
For crystal violet staining, cells treated as indicated were first washed once with PBS, followed by fixation with 4% PFA. Cells were then stained with 0.5% crystal violet for 2 hrs before they were extensively washed with water.
For orientation: In western blotting, separated proteins are transferred to a membrane and probed.

Series [3] concerns EV71 virus. The experiment in a line: 1H NMR titration of peptide with EV71 virus. The class given is binding, enterovirus 71 (EV71). The note with it: molar ratio peptide to virus 90:1, 800 MHz, 298k. How it is done:
(§2) The NMR titrations were performed on a Bruker 800 MHz (Avance NEO) spectrometer equipped with cryo-probe. The molar ratio of the peptide to the virus was 90:1. The experiments were recorded using zgespg pulse for 128 scans at 298k and the results were analyzed by Topspin.

Series [4] has as its system CVB5 virus. Put plainly: 1H NMR titration of peptide with CVB5 virus. The class given is binding, coxsackievirus B5. The note with it: molar ratio peptide to virus 90:1, 800 MHz, 298k. How it is done:
as §2

The subject of series [5] is EV71 virions. The experiment in a line: Viral particle stability thermal release assay (PaSTRY). Further details: species or system enterovirus 71 (EV71). The note with it: EV71 MOI = 10 pre-incubated with LL-18 or NaCl, SYBR green II, heated 25°C to 80°C; PBS control around 45°C. The method, then:
Fig 6 LL-18 stabilizes the viral particles by inhibiting uncoating. (A) EV71 virus (MOI = 10) was pre-incubated with PBS, indicated amount of LL-18 or NaCl for 1 hr and then mixed with SYBR green dyes II before they were heated to indicated temperatures. The fluorescent signals were measured and plotted against temperature. PBS was used as a negative control. (B) EV71 virus (MOI = 10) was pre-incubated with PBS, LL-18, or 12s for 2 hrs. Half of the samples were then treated with 1.5 μg SCARB2 protein and incubated at 37°C for 2 hrs at pH 5.5. Samples were then subjected to ultracentrifugation as detailed in materials and methods. The numbers above represent the fractions collected from top to bottom.
EV71 viruses were preincubated with either PBS, NaCl or the indicated amount of LL-18 at room temperature for 2 hrs, before Sybr green II dye (3× working concentration, Solarbio, China) and RNase inhibitor (1 U/μL, Thermo Scientific) were added. The mixture was heated from 25°C to 80°C with an increment of 0.5°C for 30 seconds, and the fluorescence from SYBR green was monitored with a QuantGene 9600 real-time PCR system (Bioer, China).

On to `CC[C@H](C)[C@H](NC(=O)[C@H](CCCCN)NC(=O)[C@H](CCC(=O)O)NC(=O)[C@H](CCCCN)NC(=O)[C@H](CO)NC(=O)[C@H](CCCCN)NC(=O)[C@H](CCCNC(=N)N)NC(=O)[C@@H](N)Cc1ccccc1)C(=O)NCC(=O)N[C@@H](CCCCN)C(=O)N[C@@H](CCC(=O)O)C(=O)N[C@@H](Cc1ccccc1)C(=O)N[C@@H](CCCCN)C(=O)N[C@@H](CCCNC(=N)N)C(=O)N[C@H](C(=O)N[C@H](C(=O)N[C@@H](CCC(N)=O)C(=O)N[C@@H](CCCNC(=N)N)C(=O)N[C@H](C(=O)N[C@@H](CCCCN)C(=O)N[C@@H](CC(=O)O)C(=O)N[C@@H](Cc1ccccc1)C(=O)N[C@@H](CC(C)C)C(=O)N[C@@H](CCCNC(=N)N)C(=O)N[C@@H](CC(N)=O)C(=O)N[C@@H](CC(C)C)C(=O)N[C@H](C(=O)O)C(C)C)[C@@H](C)CC)C(C)C)[C@@H](C)CC` (racemic) [DL-37], for which the CC50 result in series [1] is given as “over 50 μM”. In series [2], the “inhibition of EV71 infection at 0.3, 0.9, or 1.5 μM” value was “could not inhibit EV71 infection” and the “inhibition of EV71 infection at higher concentration” value is listed as “only showed inhibition at a much higher concentration”. In addition, the “inhibition of EV71 infection (overall conclusion)” value in series [2] (VP1 expression, viral titer, crystal violet and Cell Titer Glo 24 h.p.i) is recorded as “little antiviral activity”.

Turning to `CC[C@H](C)[C@H](NC(=O)[C@H](CCCCN)NC(=O)[C@H](CCC(=O)O)NC(=O)[C@H](CCCCN)NC(=O)[C@H](CO)NC(=O)[C@H](CCCCN)NC(=O)[C@H](CCCNC(=N)N)NC(=O)[C@H](Cc1ccccc1)NC(=O)[C@H](Cc1ccccc1)NC(=O)[C@H](CC(=O)O)NC(=O)CNC(=O)[C@H](CC(C)C)NC(=O)[C@@H](N)CC(C)C)C(=O)NCC(=O)N[C@@H](CCCCN)C(=O)N[C@@H](CCC(=O)O)C(=O)N[C@@H](Cc1ccccc1)C(=O)N[C@@H](CCCCN)C(=O)N[C@@H](CCCNC(=N)N)C(=O)N[C@H](C(=O)N[C@H](C(=O)N[C@@H](CCC(N)=O)C(=O)N[C@@H](CCCNC(=N)N)C(=O)N[C@H](C(=O)N[C@@H](CCCCN)C(=O)N[C@@H](CC(=O)O)C(=O)N[C@@H](Cc1ccccc1)C(=O)N[C@@H](CC(C)C)C(=O)N[C@@H](CCCNC(=N)N)C(=O)N[C@@H](CC(N)=O)C(=O)N[C@@H](CC(C)C)C(=O)N[C@H](C(=O)N1CCC[C@H]1C(=O)N[C@@H](CCCNC(=N)N)C(=O)N[C@H](C(=O)N[C@@H](CCC(=O)O)C(=O)N[C@@H](CO)C(=O)O)[C@@H](C)O)C(C)C)[C@@H](C)CC)C(C)C)[C@@H](C)CC` [LL-37, reference compound], in series [3], the “interaction of peptide with EV71 virus by 1H 1D NMR (amide region)” value was “no interaction between the peptide and viruses”. Besides, in series [4], the “interaction of peptide with CVB5 virus by 1H 1D NMR (amide region)” value is “no interaction between the peptide and viruses”. The CC50 result in series [1] is “over 50 μM”. Moreover, in series [2], the “inhibition of EV71 infection at 0.3, 0.9, or 1.5 μM” value was “could not inhibit EV71 infection” and the “inhibition of EV71 infection at higher concentration” value is reported as “only showed inhibition at a much higher concentration”.

Turning to `[Cl-].[Na+]` [NaCl, reference compound], the “temperature of peak SYBR green fluorescence intensity (RNA release)” value in series [5] was determined as 55 °C.
